Source: US6534447B1, “Herbicidal pyridine compounds” (BASF Aktiengesellschaft, priority 1999, dated 2003)

Key:
Format in all cases: in vivo
[1] = test system: Abutilon theophrasti (ABUTH, velvetleaf); experiment: Pre-emergence herbicidal evaluation; details: 3 weeks after treatment
From the text: (§1) The pre-emergence herbicidal activity of the compounds of the present invention is exemplified by the following test in which the seeds of a variety of monocotyledonous and dicotyledonous plants are seperately mixed with potting soil and planted on top of approximately one inch of soil in separate post. After planting, the pots are sprayed with the selected aqueous acetone solution. containing test compound in sufficient quantity to provide the equivalent of about 0.025 to 0.4 kg per hectare of test compound per pot. The treated pots are then placed on greenhouse benches, watered and cared for in accordance with conventional greenhouse procedures. From 3 weeks after treatment, the tests are terminated and each pot is examined and rated according to the rating system set forth below. [table] [table]

[2] = test system: Alopecurus myosuroides (ALOMY, black grass); experiment: Pre-emergence herbicidal evaluation; details: 3 weeks after treatment
From the text: as §1

[3] = test system: Echinochloa grus galli (ECHCG, barnyard grass); experiment: Pre-emergence herbicidal evaluation; details: 3 weeks after treatment
From the text: as §1

[4] = test system: Galium aparine (GALAP, cleaver); experiment: Pre-emergence herbicidal evaluation; details: 3 weeks after treatment
From the text: as §1

[5] = test system: Ipomoea hederacea (IPOHE, morning glory); experiment: Pre-emergence herbicidal evaluation; details: 3 weeks after treatment
From the text: as §1

[6] = test system: Matricaria inodora (MATIN, mayweed); experiment: Pre-emergence herbicidal evaluation; details: 3 weeks after treatment
From the text: as §1

[7] = test system: Setaria viridis (SETVI, green foxtail); experiment: Pre-emergence herbicidal evaluation; details: 3 weeks after treatment
From the text: as §1

[8] = test system: Stellaria media (STEME, chickweed); experiment: Pre-emergence herbicidal evaluation; details: 3 weeks after treatment
From the text: as §1

[9] = test system: Glycine max (GLXMA, soyabeans); experiment: Pre-emergence herbicidal evaluation (crop); details: 3 weeks after treatment
From the text: as §1

[10] = test system: Triticum aestivum (TRZAW, winter wheat); experiment: Pre-emergence herbicidal evaluation (crop); details: 3 weeks after treatment
From the text: as §1

Zea mays (ZEAMX, maize) = experiment: Pre-emergence herbicidal evaluation (crop); details: 3 weeks after treatment
From the text: as §1

[11] = test system: Abutilon theophrasti (ABUTH, velvetleaf); experiment: Post-emergence herbicidal evaluation; details: 3 weeks after treatment
Description: (§2) These acetone solutions are diluted with water and the resulting formulations applied at dosage levels equivalent of about 0.025 to 0.4 kg per hectare of test compound per pot. After spraying the plants are placed on greenhouse benches and are cared for in the usual manner, commensurate with conventional greenhouse practices. From 3 weeks after treatment, the seedling plants are examined and rated according to the rating system provided above. A rating 0 indicates growth as untreated control, a rating 9 indicates death.

[12] = test system: Alopecurus myosuroides (ALOMY, black grass); experiment: Post-emergence herbicidal evaluation; details: 3 weeks after treatment
Description: as §2

[13] = test system: Dolium multiflorum (LOLMU, ryegrass); experiment: Post-emergence herbicidal evaluation; details: rate 0.100 kg/ha, 3 weeks after treatment
Description: as §2

[14] = test system: Echinochloa grus galli (ECHCG, barnyard grass); experiment: Post-emergence herbicidal evaluation; details: 3 weeks after treatment
Description: as §2

[15] = test system: Galium aparine (GALAP, cleaver); experiment: Post-emergence herbicidal evaluation; details: 3 weeks after treatment
Description: as §2

[16] = test system: Ipomoea hederacea (IPOHE, morning glory); experiment: Post-emergence herbicidal evaluation; details: 3 weeks after treatment
Description: as §2

[17] = test system: Matricaria inodora (MATIN, mayweed); experiment: Post-emergence herbicidal evaluation; details: 3 weeks after treatment
Description: as §2

[18] = test system: Setaria viridis (SETVI, green foxtail); experiment: Post-emergence herbicidal evaluation; details: 3 weeks after treatment
Description: as §2

eight weed species = experiment: Pre-emergence herbicidal evaluation, overall weed control
From the text: as §1, with “below.” for “below. [table] [table]”
Thus, there is evidence for the good potential of the compounds of the invention for excellent cross spectrum control of both grasses and broadleaf weeds in key crops.

[19] = test system: Stellaria media (STEME, chickweed); experiment: Post-emergence herbicidal evaluation; details: 3 weeks after treatment
Description: as §2

[20] = crop selective dose of 0.1 kg/ha

## Cc1cc(OCCSC(F)(F)F)nc(Oc2cc(C(F)(F)F)nn2C)c1 [Example 1, 2-(1-methyl-3-trifluoromethylpyrazol-5-yloxy)-6-(2-trifluoromethylthioethoxy)-4-methylpyridine]
[1]; rate 0.025 kg/ha
  ABUTH rating: 8 (8 - Approaching complete kill)
[1]; rate 0.100 kg/ha
  ABUTH rating: 9 (9 - Complete kill)
[1]; rate 0.400 kg/ha
  ABUTH rating: 9 (9 - Complete kill)
[2]; rate 0.025 kg/ha
  ALOMY rating: 7 (7 - Good herbicidal effect)
[2]; rate 0.100 kg/ha
  ALOMY rating: 9 (9 - Complete kill)
[2]; rate 0.400 kg/ha
  ALOMY rating: 9 (9 - Complete kill)
[3]; rate 0.025 kg/ha
  ECHCG rating: 7 (7 - Good herbicidal effect)
[3]; rate 0.100 kg/ha
  ECHCG rating: 9 (9 - Complete kill)
[3]; rate 0.400 kg/ha
  ECHCG rating: 9 (9 - Complete kill)
[4]; rate 0.025 kg/ha
  GALAP rating: 6 (6 - Herbicidal effect)
[4]; rate 0.100 kg/ha
  GALAP rating: 8 (8 - Approaching complete kill)
[4]; rate 0.400 kg/ha
  GALAP rating: 8 (8 - Approaching complete kill)
[5]; rate 0.025 kg/ha
  IPOHE rating: 6 (6 - Herbicidal effect)
[5]; rate 0.100 kg/ha
  IPOHE rating: 9 (9 - Complete kill)
[5]; rate 0.400 kg/ha
  IPOHE rating: 9 (9 - Complete kill)
[6]; rate 0.025 kg/ha
  MATIN rating: 9 (9 - Complete kill)
[6]; rate 0.100 kg/ha
  MATIN rating: 9 (9 - Complete kill)
[6]; rate 0.400 kg/ha
  MATIN rating: 9 (9 - Complete kill)
[7]; rate 0.025 kg/ha
  SETVI rating: 9 (9 - Complete kill)
[7]; rate 0.100 kg/ha
  SETVI rating: 9 (9 - Complete kill)
[7]; rate 0.400 kg/ha
  SETVI rating: 9 (9 - Complete kill)
[8]; rate 0.025 kg/ha
  STEME rating: 9 (9 - Complete kill)
[8]; rate 0.100 kg/ha
  STEME rating: 9 (9 - Complete kill)
[8]; rate 0.400 kg/ha
  STEME rating: 9 (9 - Complete kill)
[9]; rate 0.025 kg/ha
  GLXMA rating: 2 (2 - Slight effect)
[9]; rate 0.100 kg/ha
  GLXMA rating: 3 (3 - Moderate effect)
[9]; rate 0.400 kg/ha
  GLXMA rating: 4 (4 - Injury)
[10]; rate 0.025 kg/ha
  TRZAW rating: 1 (1 - Trace effect)
[10]; rate 0.100 kg/ha
  TRZAW rating: 2 (2 - Slight effect)
[10]; rate 0.400 kg/ha
  TRZAW rating: 3 (3 - Moderate effect)
Zea mays (ZEAMX, maize); rate 0.025 kg/ha
  ZEAMX rating: 2 (2 - Slight effect)
Zea mays (ZEAMX, maize); rate 0.100 kg/ha
  ZEAMX rating: 4 (4 - Injury)
Zea mays (ZEAMX, maize); rate 0.400 kg/ha
  ZEAMX rating: 5 (5 - Definite injury)
[11]; rate 0.025 kg/ha
  ABUTH rating: 5 (5 - Definite injury)
[11]; rate 0.100 kg/ha
  ABUTH rating: 6 (6 - Herbicidal effect)
[11]; rate 0.400 kg/ha
  ABUTH rating: 6 (6 - Herbicidal effect)
[12]; rate 0.025 kg/ha
  ALOMY rating: 4 (4 - Injury)
[12]; rate 0.100 kg/ha
  ALOMY rating: 7 (7 - Good herbicidal effect)
[12]; rate 0.400 kg/ha
  ALOMY rating: 8 (8 - Approaching complete kill)
[13]
  LOLMU rating: 8 (8 - Approaching complete kill)
[14]; rate 0.025 kg/ha
  ECHCG rating: 6 (6 - Herbicidal effect)
[14]; rate 0.100 kg/ha
  ECHCG rating: 9 (9 - Complete kill)
[14]; rate 0.400 kg/ha
  ECHCG rating: 9 (9 - Complete kill)
[15]; rate 0.025 kg/ha
  GALAP rating: 2 (2 - Slight effect)
[15]; rate 0.100 kg/ha
  GALAP rating: 5 (5 - Definite injury)
[15]; rate 0.400 kg/ha
  GALAP rating: 8 (8 - Approaching complete kill)
[16]; rate 0.025 kg/ha
  IPOHE rating: 8 (8 - Approaching complete kill)
[16]; rate 0.100 kg/ha
  IPOHE rating: 8 (8 - Approaching complete kill)
[16]; rate 0.400 kg/ha
  IPOHE rating: 9 (9 - Complete kill)
[17]; rate 0.025 kg/ha
  MATIN rating: 5 (5 - Definite injury)
[17]; rate 0.100 kg/ha
  MATIN rating: 7 (7 - Good herbicidal effect)
[17]; rate 0.400 kg/ha
  MATIN rating: 8 (8 - Approaching complete kill)
[18]; rate 0.025 kg/ha
  SETVI rating: 5 (5 - Definite injury)
[18]; rate 0.100 kg/ha
  SETVI rating: 8 (8 - Approaching complete kill)
[18]; rate 0.400 kg/ha
  SETVI rating: 8 (8 - Approaching complete kill)
Eight weed species; [20]
  weed control (in words): complete control

## Cc1cc(OCCCSC(F)(F)F)nc(Oc2cc(C(F)(F)F)nn2C)c1 [Example 4]
[1]; rate 0.025 kg/ha
  ABUTH rating: 3 (3 - Moderate effect)
[1]; rate 0.100 kg/ha
  ABUTH rating: 7 (7 - Good herbicidal effect)
[1]; rate 0.400 kg/ha
  ABUTH rating: 9 (9 - Complete kill)
[2]; rate 0.025 kg/ha
  ALOMY rating: 5 (5 - Definite injury)
[2]; rate 0.100 kg/ha
  ALOMY rating: 8 (8 - Approaching complete kill)
[2]; rate 0.400 kg/ha
  ALOMY rating: 8 (8 - Approaching complete kill)
[3]; rate 0.025 kg/ha
  ECHCG rating: 3 (3 - Moderate effect)
[3]; rate 0.100 kg/ha
  ECHCG rating: 8 (8 - Approaching complete kill)
[3]; rate 0.400 kg/ha
  ECHCG rating: 9 (9 - Complete kill)
[4]; rate 0.025 kg/ha
  GALAP rating: 4 (4 - Injury)
[4]; rate 0.100 kg/ha
  GALAP rating: 8 (8 - Approaching complete kill)
[4]; rate 0.400 kg/ha
  GALAP rating: 8 (8 - Approaching complete kill)
[5]; rate 0.025 kg/ha
  IPOHE rating: 6 (6 - Herbicidal effect)
[5]; rate 0.100 kg/ha
  IPOHE rating: 9 (9 - Complete kill)
[5]; rate 0.400 kg/ha
  IPOHE rating: 9 (9 - Complete kill)
[6]; rate 0.025 kg/ha
  MATIN rating: 8 (8 - Approaching complete kill)
[6]; rate 0.100 kg/ha
  MATIN rating: 8 (8 - Approaching complete kill)
[6]; rate 0.400 kg/ha
  MATIN rating: 8 (8 - Approaching complete kill)
[7]; rate 0.025 kg/ha
  SETVI rating: 8 (8 - Approaching complete kill)
[7]; rate 0.100 kg/ha
  SETVI rating: 9 (9 - Complete kill)
[7]; rate 0.400 kg/ha
  SETVI rating: 9 (9 - Complete kill)
[8]; rate 0.025 kg/ha
  STEME rating: 9 (9 - Complete kill)
[8]; rate 0.100 kg/ha
  STEME rating: 9 (9 - Complete kill)
[8]; rate 0.400 kg/ha
  STEME rating: 9 (9 - Complete kill)
[9]; rate 0.025 kg/ha
  GLXMA rating: 1 (1 - Trace effect)
[9]; rate 0.100 kg/ha
  GLXMA rating: 2 (2 - Slight effect)
[9]; rate 0.400 kg/ha
  GLXMA rating: 3 (3 - Moderate effect)
[10]; rate 0.025 kg/ha
  TRZAW rating: 0 (0 - No effect)
[10]; rate 0.100 kg/ha
  TRZAW rating: 0 (0 - No effect)
[10]; rate 0.400 kg/ha
  TRZAW rating: 2 (2 - Slight effect)
Zea mays (ZEAMX, maize); rate 0.025 kg/ha
  ZEAMX rating: 2 (2 - Slight effect)
Zea mays (ZEAMX, maize); rate 0.100 kg/ha
  ZEAMX rating: 2 (2 - Slight effect)
Zea mays (ZEAMX, maize); rate 0.400 kg/ha
  ZEAMX rating: 4 (4 - Injury)
[11]; rate 0.025 kg/ha
  ABUTH rating: 5 (5 - Definite injury)
[11]; rate 0.100 kg/ha
  ABUTH rating: 7 (7 - Good herbicidal effect)
[11]; rate 0.400 kg/ha
  ABUTH rating: 8 (8 - Approaching complete kill)
[12]; rate 0.025 kg/ha
  ALOMY rating: 6 (6 - Herbicidal effect)
[12]; rate 0.100 kg/ha
  ALOMY rating: 8 (8 - Approaching complete kill)
[12]; rate 0.400 kg/ha
  ALOMY rating: 8 (8 - Approaching complete kill)
[13]
  LOLMU rating: 8 (8 - Approaching complete kill)
[14]; rate 0.025 kg/ha
  ECHCG rating: 8 (8 - Approaching complete kill)
[14]; rate 0.100 kg/ha
  ECHCG rating: 8 (8 - Approaching complete kill)
[14]; rate 0.400 kg/ha
  ECHCG rating: 9 (9 - Complete kill)
[15]; rate 0.025 kg/ha
  GALAP rating: 7 (7 - Good herbicidal effect)
[15]; rate 0.100 kg/ha
  GALAP rating: 8 (8 - Approaching complete kill)
[15]; rate 0.400 kg/ha
  GALAP rating: 9 (9 - Complete kill)
[16]; rate 0.025 kg/ha
  IPOHE rating: 5 (5 - Definite injury)
[16]; rate 0.100 kg/ha
  IPOHE rating: 7 (7 - Good herbicidal effect)
[16]; rate 0.400 kg/ha
  IPOHE rating: 9 (9 - Complete kill)
[17]; rate 0.025 kg/ha
  MATIN rating: 4 (4 - Injury)
[17]; rate 0.100 kg/ha
  MATIN rating: 7 (7 - Good herbicidal effect)
[17]; rate 0.400 kg/ha
  MATIN rating: 8 (8 - Approaching complete kill)
[18]; rate 0.025 kg/ha
  SETVI rating: 5 (5 - Definite injury)
[18]; rate 0.100 kg/ha
  SETVI rating: 7 (7 - Good herbicidal effect)
[18]; rate 0.400 kg/ha
  SETVI rating: 9 (9 - Complete kill)
[19]; rate 0.025 kg/ha
  STEME rating: 5 (5 - Definite injury)
[19]; rate 0.100 kg/ha
  STEME rating: 5 (5 - Definite injury)
[19]; rate 0.400 kg/ha
  STEME rating: 8 (8 - Approaching complete kill)
Eight weed species; [20]
  weed control (in words): high levels of activity
Eight weed species; wheat selective dose of 0.4 kg/ha
  weed control (in words): complete weed control
